Measured values taken from ChEMBL document CHEMBL1201862, “PubChem BioAssay data set” (2004).
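96-well plates; 48 h exposure; 5 concentrations. Endpoints by linear interpolation between flanking doses. Not reached: highest tested concentration assigned. Abbreviation: GI50, concentration required for 50% inhibition of growth.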 The source made the active and inactive calls. No stated cut-off is given here; in the data, active = GI50 up to about 1.1 µM and inactive = higher.

What was measured:
Test in all cases: NCI tumour cell line growth inhibition, 48 h
UACC-62 = test system: UACC-62
SW-620 = test system: SW-620
CCRF-CEM = test system: CCRF-CEM
SK-MEL-2 = test system: SK-MEL-2
MDA-MB-231 = test system: MDA-MB-231
SK-OV-3 = test system: SK-OV-3
OVCAR-8 = test system: OVCAR-8
SNB-75 = test system: SNB-75
U-251 = test system: U-251
A549 = test system: A549
UACC-257 = test system: UACC-257
NCI-H522 = test system: NCI-H522
Hs-578T = test system: Hs-578T
SK-MEL-5 = test system: SK-MEL-5
HCT-15 = test system: HCT-15
DU-145 = test system: DU-145
K562 = test system: K562
OVCAR-3 = test system: OVCAR-3

O=C(/C=C/c1ccc(OCc2ccccc2)cc1)NCc1ccc(C(=O)NCc2ccccc2)cc1
GI50 (UACC-62): > 100 µM (inactive) | GI50 (SW-620): > 100 µM (inactive) | GI50 (CCRF-CEM): > 100 µM (inactive) | GI50 (SK-MEL-2): > 100 µM (inactive) | GI50 (MDA-MB-231): > 100 µM (inactive) | GI50 (SK-OV-3): > 100 µM (inactive) | GI50 (OVCAR-8): > 100 µM (inactive) | GI50 (SNB-75): 36.6 µM (inactive) | GI50 (U-251): > 100 µM (inactive) | GI50 (A549): > 100 µM (inactive) | GI50 (UACC-257): > 100 µM (inactive) | GI50 (NCI-H522): > 100 µM (inactive) | GI50 (Hs-578T): > 100 µM (inactive) | GI50 (SK-MEL-5): > 100 µM (inactive) | GI50 (HCT-15): > 100 µM | GI50 (DU-145): > 100 µM (inactive) | GI50 (K562): > 100 µM (inactive) | GI50 (OVCAR-3): > 100 µM (inactive)

O=C(O)C1CC(c2ccccc2)=NN1c1ccccc1 (stereo not given)
GI50 (UACC-62): > 100 µM (inactive) | GI50 (SW-620): 92.3 µM (inactive) | GI50 (CCRF-CEM): 48.4 µM (inactive) | GI50 (SK-MEL-2): 69.5 µM (inactive) | GI50 (MDA-MB-231): > 100 µM (inactive) | GI50 (SK-OV-3): > 100 µM (inactive) | GI50 (OVCAR-8): > 100 µM (inactive) | GI50 (SNB-75): > 100 µM (inactive) | GI50 (U-251): 62.1 µM (inactive) | GI50 (A549): 70 µM (inactive) | GI50 (UACC-257): 51.9 µM (inactive) | GI50 (NCI-H522): 27.4 µM (inactive) | GI50 (Hs-578T): 25.4 µM (inactive) | GI50 (SK-MEL-5): 34.4 µM (inactive) | GI50 (HCT-15): 34 µM | GI50 (DU-145): 96.8 µM (inactive) | GI50 (K562): 47.5 µM (inactive) | GI50 (OVCAR-3): 42 µM (inactive)

CC(C)(C)c1cc(OCc2nnc3sc(Cc4ccccc4)nn23)c(Cl)cc1OCc1nnc2sc(Cc3ccccc3)nn12
GI50 (UACC-62): 19.5 µM (inactive) | GI50 (SW-620): 26.7 µM (inactive) | GI50 (CCRF-CEM): 3.27 µM (inactive) | GI50 (SK-MEL-2): 37.8 µM (inactive) | GI50 (MDA-MB-231): 19.3 µM (inactive) | GI50 (SK-OV-3): 34 µM (inactive) | GI50 (OVCAR-8): 17.1 µM (inactive) | GI50 (SNB-75): 15.3 µM (inactive) | GI50 (U-251): 13.9 µM (inactive) | GI50 (A549): 28.8 µM (inactive) | GI50 (UACC-257): 21.3 µM (inactive) | GI50 (NCI-H522): 37.2 µM (inactive) | GI50 (Hs-578T): > 100 µM (inactive) | GI50 (SK-MEL-5): 15.3 µM (inactive) | GI50 (HCT-15): 33.4 µM | GI50 (DU-145): 33 µM (inactive) | GI50 (K562): 14.5 µM (inactive) | GI50 (OVCAR-3): 30.7 µM (inactive)

O=C(c1c(F)c(F)c(F)c(F)c1F)c1c(F)c(F)c(F)c(F)c1F
GI50 (UACC-62): 1.92 µM (inactive) | GI50 (SW-620): 1.06 µM (active) | GI50 (CCRF-CEM): 0.0553 µM (active) | GI50 (SK-MEL-2): 2.24 µM (inactive) | GI50 (MDA-MB-231): 1.85 µM (inactive) | GI50 (SK-OV-3): 2.39 µM (inactive) | GI50 (OVCAR-8): 1.5 µM (inactive) | GI50 (SNB-75): 1.98 µM (inactive) | GI50 (U-251): 0.951 µM (active) | GI50 (A549): 3.53 µM (inactive) | GI50 (UACC-257): 1.84 µM (inactive) | GI50 (NCI-H522): 0.182 µM (active) | GI50 (Hs-578T): 2.69 µM (inactive) | GI50 (SK-MEL-5): 2.82 µM (inactive) | GI50 (HCT-15): 1.55 µM | GI50 (DU-145): 1.96 µM (inactive) | GI50 (K562): 0.316 µM (active) | GI50 (OVCAR-3): 0.979 µM (active)

COc1cc2cc(C(=O)N3CC(CCl)c4ccc(O)cc43)[nH]c2c(OC)c1OC (stereo not given)
GI50 (UACC-62): 0.00136 µM (active) | GI50 (SW-620): 0.00233 µM (active) | GI50 (CCRF-CEM): < 0.01 µM (active) | GI50 (SK-MEL-2): 0.00169 µM (active) | GI50 (MDA-MB-231): 0.00196 µM (active) | GI50 (OVCAR-8): 0.00132 µM (active) | GI50 (SNB-75): 0.00628 µM (active) | GI50 (U-251): 0.000791 µM (active) | GI50 (A549): 0.000501 µM (active) | GI50 (UACC-257): 0.0149 µM (active) | GI50 (NCI-H522): < 0.0001 µM (active) | GI50 (Hs-578T): 0.016 µM (active) | GI50 (SK-MEL-5): < 0.0001 µM (active) | GI50 (HCT-15): 0.00562 µM | GI50 (DU-145): 0.00466 µM (active) | GI50 (K562): 0.000282 µM (active) | GI50 (OVCAR-3): 0.0031 µM (active)

COC(=O)[C@@H](Cc1ccccc1)N1O[C@]12CCCC[C@@H]2NC(=O)OC(C)(C)C (stereo not given in full)
GI50 (UACC-62): 23.2 µM (inactive) | GI50 (SW-620): 15.8 µM (inactive) | GI50 (CCRF-CEM): 14.7 µM (inactive) | GI50 (SK-MEL-2): 20.4 µM (inactive) | GI50 (MDA-MB-231): 19.5 µM (inactive) | GI50 (SNB-75): 30.4 µM (inactive) | GI50 (U-251): 26.9 µM (inactive) | GI50 (A549): 29.2 µM (inactive) | GI50 (UACC-257): 36.4 µM (inactive) | GI50 (NCI-H522): 16.7 µM (inactive) | GI50 (Hs-578T): 21.6 µM (inactive) | GI50 (SK-MEL-5): 19.5 µM (inactive) | GI50 (HCT-15): 18.4 µM | GI50 (DU-145): 29.4 µM (inactive) | GI50 (K562): 40.1 µM (inactive) | GI50 (OVCAR-3): 21.9 µM (inactive)

COc1ccc(/C=C2\N/C(=N\N=C/C(O)C(O)C(O)C(O)CO)NC2=O)cc1 (stereo not given)
GI50 (SW-620): 76 µM (inactive) | GI50 (CCRF-CEM): 38.1 µM (inactive) | GI50 (SK-MEL-2): 17.8 µM (inactive) | GI50 (MDA-MB-231): 32.7 µM (inactive) | GI50 (SK-OV-3): 24.9 µM (inactive) | GI50 (OVCAR-8): 32.4 µM (inactive) | GI50 (SNB-75): 22.1 µM (inactive) | GI50 (U-251): 20.7 µM (inactive) | GI50 (A549): > 100 µM (inactive) | GI50 (UACC-257): 30.1 µM (inactive) | GI50 (NCI-H522): 20.3 µM (inactive) | GI50 (Hs-578T): 26.9 µM (inactive) | GI50 (SK-MEL-5): 47.3 µM (inactive) | GI50 (HCT-15): > 100 µM | GI50 (DU-145): 30.4 µM (inactive) | GI50 (K562): 62.8 µM (inactive) | GI50 (OVCAR-3): 18.6 µM (inactive)

OC[C@H]1C[C@@H]2Cc3ccccc3N2N1
GI50 (UACC-62): > 100 µM (inactive) | GI50 (SW-620): > 100 µM (inactive) | GI50 (CCRF-CEM): > 100 µM (inactive) | GI50 (SK-MEL-2): > 100 µM (inactive) | GI50 (MDA-MB-231): > 100 µM (inactive) | GI50 (SK-OV-3): > 100 µM (inactive) | GI50 (OVCAR-8): > 100 µM (inactive) | GI50 (SNB-75): > 100 µM (inactive) | GI50 (U-251): > 100 µM (inactive) | GI50 (A549): > 100 µM (inactive) | GI50 (UACC-257): > 100 µM (inactive) | GI50 (NCI-H522): > 100 µM (inactive) | GI50 (Hs-578T): > 100 µM (inactive) | GI50 (SK-MEL-5): > 100 µM (inactive) | GI50 (HCT-15): > 100 µM | GI50 (DU-145): > 100 µM (inactive) | GI50 (K562): > 100 µM (inactive) | GI50 (OVCAR-3): > 100 µM (inactive)
